From US20100203524A1, “POLYMERASES AND METHODS OF USE THEREOF” (Helicos Biosciences Corporation, priority 2008, published 2010)

What was measured:
[1] = test system: dNTP-F1 / scarred primer terminus; assay: Sequencing-like kinetic assay: extension of scarred primer terminus with dNTP-F1 by Taq or Taq197; assay type: biochemical; conditions: 37° C., 40 nM enzyme, 10 nM DNA, 100 nM dNTP-F1
Method: Scarred primers were prepared enzymatically; following annealing of natural primers (bearing Rhodamine 110 dye-label, purchased from IDT) to templates, 15 U Klenow fragment (exo−) (New England Biolabs) in its supplied buffer was incubated with 5 μM DNA and 25 μM scarred dNTPs in 100 μL for 20 minutes at room temperature to incorporate scarred nucleotides onto the primer. Upon completion, reaction mixtures were heated at 70° C. for 15 minutes to inactivate Klenow fragment and purified from the scarred dNTPs using a DTR spin column (Edge BioSystems). Scarred primers were observed on an ABI3730 DNA sequencer and conversion to the desired scarred primer was greater than 95%.
Polymerases were added to a mixture containing scarred DNA (prepared in previous section), modified dNTPs, and reaction buffer and incubated at either 37° C. or 50° C. and aliquots removed at variable time points and added directly to a quenching solution containing 100 mM EDTA. Reaction products were characterized on an ABI3730 sequencer using the GeneScan™ LIZ 120® size standard (Applied Biosystems) as a reference. The ratio of peak heights, obtained using ABI Peak Scanner (v1.0), was used to calculate percent primer conversion as a function of time and the data was fit to a first order exponential (Prism 4 by GraphPad).
The mutations found in Sf168, Sf197, and Sf267 were cloned into full length Taq, and extension of a scarred primer terminus was characterized by measuring the rate of incorporation of each dNTP-F1 by Taq or a selected mutant. Taq197 (corresponding to the mutations from Sf197) was the most optimized of the three polymerase mutants, incorporating each dNTP-F1 48- to 377-fold more efficiently than wild type Taq, with no apparent bias toward the identity of the dNTP-F1 or the sequence of the primer, as shown in Table 7 below. Buffer conditions were as follows: 20 mM Tris pH 8.8, 10 mM NaCl, 10 mM KCl, 10 mM ammonium sulfate, 0.1% Triton X-100, 10 mM MgCl2, 37° C., 40 nM enzyme, 10 nM DNA, 100 nM dNTP-F1. N1 nucleotides are scarred (see FIG. 1 panel B).

[2] = test system: incorrect dNTP-F1s opposite dA in the template; assay: Fidelity: misincorporation of the three incorrect dNTP-F1s opposite dA in the template; assay type: biochemical; conditions: even after 90 minutes
Method: To examine the fidelity of Taq197, the misincorporation of the three incorrect dNTP-F1s opposite dA in the template was characterized. […] Thus, based on the detection limit of the assay, it was possible to set an upper limit of 5.6×10^−4 min^−1 for the rate of mispair formation, making correct incorporation of modified nucleotides more than 5,000-fold more efficient than mispair formation.

## Taq: wild type full length T. aquaticus DNA polymerase I (Taq)
[1]; dNTP-F1 C, N1N1N1/N2N2N2 AAA/UUU
  rate of incorporation of dNTP-F1: 0.002 ± 0.0002 min⁻¹
[1]; dNTP-F1 G, N1N1N1/N2N2N2 UIJU/AAA
  rate of incorporation of dNTP-F1: 0.14 ± 0.05 min⁻¹
[1]; dNTP-F1 N = A, N1N1N1/N2N2N2 UUU/AAA
  rate of incorporation of dNTP-F1: 0.011 ± 0.002 min⁻¹
[1]; dNTP-F1 U, N1N1N1/N2N2N2 CCC/GGG
  rate of incorporation of dNTP-F1: 0.05 ± 0.02 min⁻¹
[2]
  synthesis of mispairs: does not measurably synthesize any of the mispairs
